Reference: ChEMBL document CHEMBL1201862, “PubChem BioAssay data set” (2004)
Activity calls are given as the source filed them.

Assays:
[1] = NIH3T3 cell viability loss – ATP luminescence, mouse fibroblasts, counter-screen, dose response (AID 2010); format: functional, cell-based;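 also: cells exposed to compound for about 90 hours before reading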
[2] = Trypanosoma cruzi growth suppression in host cells – NIH3T3 host cells, beta-gal luminescence, confirmation (AID 2044); format: functional, cell-based;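 also: intracellular parasites grown in NIH/3T3 mouse fibroblasts as host cells; luminescent beta-galactosidase reporter signal from transgenic T. cruzi replicating inside host cells; inhibitors lower the luminescence signal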
INS1 = assay: INS-1E survival protection against cytokine death – cell-based, luminescence, retest, dose response (AID 449756); format: functional; conditions: Rattus norvegicus;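 also: cell death triggered by IL-1 beta plus TNF-alpha plus IFN-gamma mixture; protective hits raise ATP signal compared with cytokine alone wells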
[3] = HEK-293T viability loss, compound-treated – cell-based, uHTS hits, cytotoxicity control for B/T-cell NF-kB inhibitor project, dose response (AID 489019); format: functional;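 also: IC50 reflects cytotoxicity as loss of cell viability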
Jurkat = assay: blockers of NF-kB activation in T cells – Jurkat, luciferase reporter, luminescence, B- and T-cell, dose response (AID 489004); format: functional, cell-based; conditions: Homo sapiens;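 also: NF-kB luciferase reporter Jurkat cells stimulated with PMA plus ionomycin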
[4] = target: T1, High affinity choline transporter 1 (Homo sapiens, UniProt Q9GZV3); assay: human choline transporter potentiators, potency – cell-based, 10-point CRC, membrane potential dye, dose response (AID 602376); format: functional
T1 sequence (Q9GZV3 whole entry): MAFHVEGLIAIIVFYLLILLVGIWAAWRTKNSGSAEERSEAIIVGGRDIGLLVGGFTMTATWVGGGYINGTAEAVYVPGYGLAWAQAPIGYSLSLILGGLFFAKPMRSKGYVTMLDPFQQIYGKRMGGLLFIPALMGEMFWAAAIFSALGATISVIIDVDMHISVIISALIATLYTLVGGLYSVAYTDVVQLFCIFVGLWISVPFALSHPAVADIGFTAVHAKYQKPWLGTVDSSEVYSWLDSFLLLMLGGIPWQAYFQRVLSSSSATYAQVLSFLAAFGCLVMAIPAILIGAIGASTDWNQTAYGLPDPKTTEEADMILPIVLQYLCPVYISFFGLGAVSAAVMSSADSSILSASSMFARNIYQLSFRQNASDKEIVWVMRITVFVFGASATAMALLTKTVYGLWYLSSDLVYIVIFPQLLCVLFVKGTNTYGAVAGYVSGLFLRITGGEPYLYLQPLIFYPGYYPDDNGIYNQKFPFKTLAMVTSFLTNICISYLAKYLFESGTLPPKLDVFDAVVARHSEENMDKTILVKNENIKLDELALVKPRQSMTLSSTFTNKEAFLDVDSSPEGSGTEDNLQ

[5] = cAMP pathway inhibition in counterscreen cell line – TR-FRET cAMP detection, counter-screen for MC4R biased antagonist project, dose response (AID 602305); format: functional, cell-based;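 also: U2OS cells stimulated with forskolin near its EC80 as the cAMP inducer; potency is for inhibition of forskolin-stimulated cAMP signaling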
Melanocortin receptor 4 = Melanocortin receptor 4 (Homo sapiens, UniProt P32245); assay: inhibitors of MC4R cAMP signaling – cell-based, TR-FRET, biased antagonists, dose response (AID 602298); format: functional;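 also: antagonist potency against agonist-stimulated cAMP production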
Chain of Melanocortin receptor 4 (P32245 whole entry): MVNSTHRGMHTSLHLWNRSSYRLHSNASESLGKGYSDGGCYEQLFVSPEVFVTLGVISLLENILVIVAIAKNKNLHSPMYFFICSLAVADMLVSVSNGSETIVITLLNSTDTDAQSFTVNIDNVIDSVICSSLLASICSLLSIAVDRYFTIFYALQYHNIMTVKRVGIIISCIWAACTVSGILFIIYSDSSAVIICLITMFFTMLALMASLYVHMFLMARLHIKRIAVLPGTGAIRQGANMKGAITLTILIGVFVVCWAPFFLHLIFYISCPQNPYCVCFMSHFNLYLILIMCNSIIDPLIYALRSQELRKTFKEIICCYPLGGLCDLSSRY

[6] = test system: Streptococcus sp. 'group A'; assay: Streptococcus pyogenes SK(-)GAS viability under kanamycin – luminescence, BacTiterGlo, confirmation, counter-screen for streptokinase expression inhibitor project, dose response (AID 1900); format: functional, organism-based
Streptococcus = assay: GAS UMAA2166 growth inhibition – luminescence, BacTiterGlo, counter-screen for streptokinase expression inhibitor project, dose response (AID 1915); format: functional, organism-based;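 also: potency for reduction of bacterial viability or growth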
Streptokinase A = target: T2, Streptokinase A (Streptococcus pyogenes serotype M1, UniProt P10520); assay: viability-normalized secreted streptokinase activity reduction – plasminogen activation absorbance, OD405, dose response (AID 1914); format: functional, Streptococcus pyogenes M1 GAS;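 also: secreted streptokinase activity via plasminogen activation per viability signal from cell pellet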
T2 sequence (P10520 whole entry): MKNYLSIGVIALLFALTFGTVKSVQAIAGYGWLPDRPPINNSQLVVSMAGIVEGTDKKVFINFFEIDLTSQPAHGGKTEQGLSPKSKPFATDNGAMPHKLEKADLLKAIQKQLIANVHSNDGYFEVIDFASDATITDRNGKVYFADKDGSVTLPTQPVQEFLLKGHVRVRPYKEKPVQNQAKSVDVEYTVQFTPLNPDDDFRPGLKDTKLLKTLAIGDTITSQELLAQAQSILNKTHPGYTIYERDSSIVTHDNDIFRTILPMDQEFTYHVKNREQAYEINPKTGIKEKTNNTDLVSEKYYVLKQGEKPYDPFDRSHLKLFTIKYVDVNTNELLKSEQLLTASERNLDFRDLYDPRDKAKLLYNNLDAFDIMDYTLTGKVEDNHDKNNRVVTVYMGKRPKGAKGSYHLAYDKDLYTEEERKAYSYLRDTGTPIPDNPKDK

[7] = target: Tyrosine-protein phosphatase non-receptor type 11 (Homo sapiens, UniProt Q06124); assay: PTPN11 enzyme inhibitors – biochemical, selectivity assay for STEP inhibitor project, dose response (AID 602367); format: functional; conditions: read-out: IC50_Mean
Chain of Tyrosine-protein phosphatase non-receptor type 11 (Q06124 whole entry): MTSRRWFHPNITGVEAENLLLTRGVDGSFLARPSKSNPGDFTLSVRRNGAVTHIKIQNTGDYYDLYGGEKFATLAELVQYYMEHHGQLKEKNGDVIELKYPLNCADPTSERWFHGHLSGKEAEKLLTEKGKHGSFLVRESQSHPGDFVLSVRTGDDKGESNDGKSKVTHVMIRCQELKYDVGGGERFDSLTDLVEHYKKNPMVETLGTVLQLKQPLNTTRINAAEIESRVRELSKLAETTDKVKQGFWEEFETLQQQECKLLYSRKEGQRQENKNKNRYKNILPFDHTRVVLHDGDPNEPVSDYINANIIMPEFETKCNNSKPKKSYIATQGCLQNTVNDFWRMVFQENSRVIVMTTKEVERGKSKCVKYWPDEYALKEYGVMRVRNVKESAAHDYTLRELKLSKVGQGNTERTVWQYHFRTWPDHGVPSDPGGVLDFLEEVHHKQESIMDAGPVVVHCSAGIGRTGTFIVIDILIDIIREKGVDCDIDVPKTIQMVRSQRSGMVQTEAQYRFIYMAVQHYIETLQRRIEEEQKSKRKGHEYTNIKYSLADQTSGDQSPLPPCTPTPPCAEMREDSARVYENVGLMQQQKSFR

[8] = target: Tyrosine-protein phosphatase non-receptor type 5 (Homo sapiens, UniProt P54829); assay: PTPN5 enzyme inhibition – biochemical, fluorescence intensity, uHTS hits, confirmation (AID 602372); format: functional; conditions: read-out: IC50_Mean
Chain of Tyrosine-protein phosphatase non-receptor type 5 (P54829 whole entry): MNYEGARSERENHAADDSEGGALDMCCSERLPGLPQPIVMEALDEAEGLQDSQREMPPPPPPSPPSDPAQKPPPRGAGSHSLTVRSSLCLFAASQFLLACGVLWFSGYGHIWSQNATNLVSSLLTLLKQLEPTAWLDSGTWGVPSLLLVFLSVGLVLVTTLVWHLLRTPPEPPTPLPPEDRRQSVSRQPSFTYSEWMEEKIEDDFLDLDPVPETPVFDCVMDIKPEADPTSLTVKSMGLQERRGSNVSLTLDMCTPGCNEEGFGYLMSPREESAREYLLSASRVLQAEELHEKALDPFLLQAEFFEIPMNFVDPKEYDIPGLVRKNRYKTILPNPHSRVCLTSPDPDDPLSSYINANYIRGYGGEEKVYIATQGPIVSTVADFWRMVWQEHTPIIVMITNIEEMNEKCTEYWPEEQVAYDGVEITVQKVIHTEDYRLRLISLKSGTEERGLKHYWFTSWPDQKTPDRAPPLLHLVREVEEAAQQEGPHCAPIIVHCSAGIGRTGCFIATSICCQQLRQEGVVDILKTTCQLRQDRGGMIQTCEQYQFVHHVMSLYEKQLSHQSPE

Caspase-6 = target: T3, Caspase-6 (Homo sapiens, UniProt P55212); assay: inhibition of CASP6 peptide cleavage – biochemical, VEID-R110 fluorescence, cherry-pick, dose response (AID 720632)
T3 sequence (P55212 whole entry): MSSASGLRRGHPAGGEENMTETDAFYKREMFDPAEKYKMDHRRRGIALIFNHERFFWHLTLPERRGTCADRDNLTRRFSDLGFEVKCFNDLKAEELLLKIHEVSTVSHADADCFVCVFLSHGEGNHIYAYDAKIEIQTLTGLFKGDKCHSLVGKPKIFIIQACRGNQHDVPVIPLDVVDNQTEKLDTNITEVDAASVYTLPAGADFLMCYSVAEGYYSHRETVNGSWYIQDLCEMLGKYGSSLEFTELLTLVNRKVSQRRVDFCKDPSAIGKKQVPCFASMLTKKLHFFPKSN

[9] = target: Dual specificity protein phosphatase 3 (Homo sapiens, UniProt P51452); assay: VHR phosphatase inhibition, dose response, selectivity assay for STEP inhibitor project, biochemical (AID 602374); format: functional; conditions: read-out: IC50_Mean
Chain of Dual specificity protein phosphatase 3 (P51452 whole entry): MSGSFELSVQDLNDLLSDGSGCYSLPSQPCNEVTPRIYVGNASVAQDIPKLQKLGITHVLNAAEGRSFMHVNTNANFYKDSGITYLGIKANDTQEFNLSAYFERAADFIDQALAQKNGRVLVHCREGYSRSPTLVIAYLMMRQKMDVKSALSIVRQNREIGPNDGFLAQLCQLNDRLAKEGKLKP

In the case of `COc1ccc(-c2cn3c([n+]2-c2ccc(C)cc2)CCCCC3)cc1`, the EC50 [1] is reported as > 60 µM (not active), the EC50 [2] is reported as 0.171 µM (active) and the AC50 (INS1) is reported as 0.348 µM (active). The IC50 [3] was > 80 µM (inactive), the IC50 (Jurkat) was > 80 µM (inactive) and the EC50 [4] was 9.77 µM (active).
With `COC(=O)c1cc(S(=O)(=O)n2nc(C)c(Br)c2C)c(Cl)cc1Cl` the IC50 [5] was > 64.6 µM (inactive), the IC50 (Melanocortin receptor 4) was > 64.6 µM (inactive) and the EC50 [6] was 1.8 µM (active). The EC50 (Streptococcus) was 10.4 µM (active) and the EC50 (Streptokinase A) was > 150 µM (not active).
For `COC(=O)c1ccccc1CSc1nsc(/C=C/N(C)C)c1C#N`, the IC50 [7] was 2.38 µM (active), the IC50 [8] was 14.5 µM (active) and the AC50 (Caspase-6) was 34.5 µM (active). The IC50 [9] was 1.29 µM (active).
